Data taken from US20150272939A1, “Identification of Small Molecule Inhibitors of Jumonji AT-Rich Interactive Domain 1A (JARID1A) and 1B (JARID1B) Histone Demethylase” (Yale University, priority 2012, published 2015).
Where “and” joins values, the source holds several entries; their conditions need not be identical. Equal entries are not always repeated. Where two headings read alike, the source gives them in different places.

How the values were obtained:
[1] = target: T1, JARID1B (Homo sapiens, UniProt Q9UGL1); assay: FLAG-JARID1B histone demethylase assay with AlphaScreen detection (HTS and dose response); type: biochemical; details: for Assay − Artifact Signal (percent): assay signal minus artifact signal; for inhibition at 20 µM / Inhibitory effect (percent): high-throughput screen, compound 20 μM; for inhibition at 20 µM: read-out: Inhibitory effect (percent); for Assay Signal (percent) / Validation result of HTS active: effect of the compound in the JARID1B AlphaScreen demethylase assay: validation of HTS actives; for Assay Signal (percent): effect of compound in JARID1B AlphaScreen assay; for Validation result of HTS active: effect of the compound in the JARID1B AlphaScreen demethylase assay: total signal before subtraction of artifact signal;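 on Assay Signal (percent): compound tested at 20 µM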;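 on Assay − Artifact Signal (percent): compound tested at 20 µM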;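 on all read-outs here: FLAG-tagged JARID1B at 4 nM acting on a biotinylated H3K4me3 peptide, demethylation read by AlphaScreen luminescence, with hits checked against bio-H3K4me2 without enzyme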
T1 construct: The FLAG tagged full length JARID1B enzyme was expressed in Sf21 insect cells using FLAG-JARID1B baculoviruses; FLAG (N); made in house; host or cells: Sf21 insect cells (baculovirus)

[2] = AlphaScreen counterscreen against bio-H3K4me2 peptide in the absence of enzyme (artifact signal); details: for Artifact Signal (percent): effect of the compound when incubated with bio-H3K4me2 peptide (counterscreen, no enzyme); for Artifact signal: effect of the compound when it is incubated with bio-H3K4me2 peptide: counterscreen, no enzyme;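 on all read-outs here: counterscreen run without enzyme against bio-H3K4me2 peptide to remove false positive hits from the JARID1 demethylase AlphaScreen screen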
[3] = standard demethylase conditions (10 μM α-KG, 50 μM Fe (II))

T1 sequence (Q9UGL1 whole entry): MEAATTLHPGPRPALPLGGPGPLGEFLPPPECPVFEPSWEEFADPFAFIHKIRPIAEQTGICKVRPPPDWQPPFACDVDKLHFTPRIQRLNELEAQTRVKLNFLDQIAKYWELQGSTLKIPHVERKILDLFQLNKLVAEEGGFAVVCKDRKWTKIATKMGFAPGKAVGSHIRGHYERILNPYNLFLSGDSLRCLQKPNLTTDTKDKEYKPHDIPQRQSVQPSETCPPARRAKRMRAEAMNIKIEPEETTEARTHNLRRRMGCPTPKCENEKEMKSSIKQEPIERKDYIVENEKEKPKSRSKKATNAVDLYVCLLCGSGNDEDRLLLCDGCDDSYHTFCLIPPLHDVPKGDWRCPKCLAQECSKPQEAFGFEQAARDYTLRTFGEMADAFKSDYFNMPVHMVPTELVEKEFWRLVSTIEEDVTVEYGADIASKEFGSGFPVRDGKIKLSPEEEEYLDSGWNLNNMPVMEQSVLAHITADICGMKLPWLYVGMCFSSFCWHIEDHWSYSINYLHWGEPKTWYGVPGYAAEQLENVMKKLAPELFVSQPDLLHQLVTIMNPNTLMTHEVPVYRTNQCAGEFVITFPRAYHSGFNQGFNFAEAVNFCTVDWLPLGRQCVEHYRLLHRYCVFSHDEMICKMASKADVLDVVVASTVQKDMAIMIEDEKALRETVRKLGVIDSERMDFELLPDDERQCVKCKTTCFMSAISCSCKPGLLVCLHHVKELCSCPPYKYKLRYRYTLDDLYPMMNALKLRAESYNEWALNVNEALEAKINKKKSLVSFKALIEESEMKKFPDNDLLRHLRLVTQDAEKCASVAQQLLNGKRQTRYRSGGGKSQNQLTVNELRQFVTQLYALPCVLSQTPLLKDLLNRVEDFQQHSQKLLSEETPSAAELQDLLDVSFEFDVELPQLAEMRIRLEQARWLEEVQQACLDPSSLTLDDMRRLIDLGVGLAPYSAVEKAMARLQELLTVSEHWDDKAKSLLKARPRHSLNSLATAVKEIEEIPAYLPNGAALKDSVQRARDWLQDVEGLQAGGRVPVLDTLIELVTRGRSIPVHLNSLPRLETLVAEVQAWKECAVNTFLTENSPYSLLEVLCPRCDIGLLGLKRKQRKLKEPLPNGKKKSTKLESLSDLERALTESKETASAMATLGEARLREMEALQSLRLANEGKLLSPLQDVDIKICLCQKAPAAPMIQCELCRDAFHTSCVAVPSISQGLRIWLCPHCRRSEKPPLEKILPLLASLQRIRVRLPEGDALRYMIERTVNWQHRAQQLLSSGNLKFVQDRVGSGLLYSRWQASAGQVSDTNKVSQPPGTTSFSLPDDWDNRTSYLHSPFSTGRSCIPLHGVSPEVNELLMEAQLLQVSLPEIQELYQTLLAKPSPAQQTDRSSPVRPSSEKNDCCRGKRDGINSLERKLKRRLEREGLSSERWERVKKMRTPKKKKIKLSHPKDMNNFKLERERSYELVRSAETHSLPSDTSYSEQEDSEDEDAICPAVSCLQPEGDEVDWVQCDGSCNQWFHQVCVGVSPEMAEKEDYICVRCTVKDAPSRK

Molecule	Assay − Artifact Signal (percent) [1] [%]	inhibition at 20 µM [1, 3] [%]	Assay Signal (percent) [1]	Artifact Signal (percent) [2]	Validation result of HTS active: effect of the compound in the JARID1B AlphaScreen demethylase assay [1]	Artifact signal: effect of the compound when it is incubated with bio-H3K4me2 peptide [2]	Inhibitory effect (percent) [1, 3] [%]	inhibition at 20 µM ([1]; IDs marked *: additional hits under reaction condition with 1 mM α-KG) [%]
CN(C)C(=S)SSC(=S)N(C)C [YU034426, THIRAM, reference compound]	59.23	64.2	66.73%	7.49%				
O=C(O[C@@H]1Cc2c(O)cc(O)cc2O[C@@H]1c1cc(O)c(=O)c2c(O)c(O)cc([C@H]3Oc4cc(O)cc(O)c4C[C@H]3OC(=O)c3cc(O)c(O)c(O)c3)c2c1)c1cc(O)c(O)c(O)c1 (stereo in doubt) [YU155100, THEAFLAVIN DIGALLATE, reference compound]		105			104.28	98.76		
O=c1c(O)c(-c2ccc(O)c(O)c2)oc2cc(O)cc(O)c12 [YU154882, QUERCETIN, reference compound]		86	100.88% and 78.65%	78.83% and 68.48%			93.51	
CNCCCOc1ccc(OCc2ccccc2)cc1 [YU147640]		39.1			5.15	−2.82		
c1ccc(-c2nn3c(Cn4cnc5ccccc54)nnc3s2)cc1 [YU153935]	21.66	40.5	14.67%	−6.99%				
O=C(NCCOc1ccccc1)c1ccccc1 [YU146037]		32.6			−0.56	−1.42		
Cc1ccc(-n2sc3ccccc3c2=O)cc1 [YU146026]	85.63	87.8	88.51%	2.88%				
COc1cccc2c1C(=O)c1c(O)c3c(c(O)c1C2=O)C[C@@](O)(C(=O)CO)C[C@@H]3O[C@H]1C[C@H](N)[C@H](O)[C@H](C)O1.Cl (stereo in doubt) [YU039629, DOXORUBICIN HYDROCHLORIDE, reference compound]		80.3			8.94	3.92		
O=c1c(O[C@@H]2O[C@H](CO)[C@H](O)[C@H](O)[C@H]2O)c(-c2ccc(O)c(O)c2)oc2cc(O)cc(O)c12 [YU221013, HYPEROSIDE, reference compound]	41.83	44.9	51.29%	9.46%				
CN(C)c1ccc(C(=C2C=CC(=[N+](C)C)C=C2)c2ccc(N(C)C)cc2)cc1 [YU033841, GENTIAN VIOLET, reference compound]		106			96.28	93.38		
CCC(=O)O[C@]1(C(=O)CCl)[C@@H](C)C[C@H]2[C@@H]3CCC4=CC(=O)C=C[C@]4(C)[C@@]3(F)[C@@H](O)C[C@@]21C [YU034506, CLOBETASOL PROPIONATE, reference compound]		98.9			5.62	−1.34		
Cc1cc(OCc2nc3ccccc3s2)ccc1N [YU147615]	13.88	40.4	14.43%	0.54%				
Cc1cc(N)c2ccccc2[n+]1CCCCCCCCCC[n+]1c(C)cc(N)c2ccccc21 [YU034372, DEQUALINIUM CHLORIDE, reference compound]	32.23	42.1	32.80%	0.57%				
Cc1cccc(C(=O)NNC(=S)NC(=O)CC(C)C)c1 [YU149514]		48.4			−2.24	−8.22		
CCn1c(S)nnc1-c1ccncc1 [YU144949]	43.88	38.8	40.70%	−3.18%				
N#CC(=Cc1ccc(O)c(O)c1)C(N)=S (single isomer, unassigned) [YU154834, TYRPHOSTIN 47, reference compound]	21.75	46.5	40.23%	18.48%				
Cc1c2c(=O)n(-c3nc4ccccc4s3)[nH]c2cc(=O)n1CCN1CCOCC1 [YU172087]	21.21	56.4	14.44%	−6.77%				
Cc1cccc(OCC(=O)Nc2ccccc2OC(F)F)c1C [YU152564]		99.6			9.13	4.29		

Molecule	Assay − Artifact Signal (percent) [1] [%]	inhibition at 20 µM [1, 3] [%]	Assay Signal (percent) [1]	Artifact Signal (percent) [2]	Validation result of HTS active: effect of the compound in the JARID1B AlphaScreen demethylase assay [1]	Artifact signal: effect of the compound when it is incubated with bio-H3K4me2 peptide [2]	Inhibitory effect (percent) [1, 3] [%]	inhibition at 20 µM ([1]; IDs marked *: additional hits under reaction condition with 1 mM α-KG) [%]
CC(O)Cc1nnc(S)n1-c1ccccc1 (centres unmarked) [YU145796]	40.83	34.8	33.04%	−7.79%				
CC(=O)Nc1ccccc1NC(=O)c1ccc2c(c1)OCO2 [YU149951]	8.46	84.7	6.61%	−1.85%				
O=c1c(O)c(-c2cc(O)c(O)c(O)c2)oc2cc(O)cc(O)c12 [YU155300, MYRICETIN, reference compound]		72.1			74.84	69.07		
C=CCNCCCCOc1cccc(OCC)c1 [YU146294]	8.13	36.5	14.08%	5.94%				
CN(C)c1cccc2c(C=O)ccc(N(C)C)c12 [YU145980]	28.03	32.3	35.60%	7.56%				
COc1ccc(C)cc1NC(c1cccnc1)c1ccc2cccnc2c1O (centres unmarked) [YU172175]	11.16	48.5	48.09%	36.93%				
Cc1[nH]c2nc(C(F)(F)F)nn2c(=O)c1C [YU172199]	42.72	62.4	38.73%	−4.00%				
O=c1c(O)cccc2cc(O)c(O)c(O)c12 [YU155440, PURPUROGALLIN, reference compound]					13.64	6.39		42.5
C[C@](N)(Cc1ccc(O)c(O)c1)C(=O)O [YU033903, METHYLDOPA, reference compound]	30.75	69.1	50.21%	−0.54%				
CCCc1ccc(OC(=O)c2cc3ccccc3oc2=O)cc1 [YU151027]		37			2.93	−4.49		
NC(=O)c1ncn([C@@H]2O[C@H](CO)[C@@H](O)[C@H]2O)n1 [YU034518, RIBAVIRIN, reference compound]	23.17	79.7	17.20%	−5.97%				
Cc1noc2c1C(c1ccc(O)c(O)c1)C1=C(CC(C)(C)CC1=O)N2 (centres unmarked) [YU185530]	36.51	46.5	38.23%	1.72%				
O=C(O)c1cc(N(Cc2ccccc2O)Cc2cc(O)ccc2O)ccc1O [YU154829, LAVENDUSTIN A, reference compound]	30.24	50.3	38.57%	8.32%				
COc1cccc2c1C(=O)c1c(O)c3c(c(O)c1C2=O)C[C@@](O)(C(C)=O)C[C@@H]3O[C@H]1C[C@H](N)[C@H](O)[C@H](C)O1 [YU155488, DAUNORUBICIN, reference compound]	45.32		48.63%	3.31%				
CALCEIN [YU034124, reference compound]	36.96		33.76%	−3.21%			60.48	
C[n+]1cc2c3c(ccc2c2ccc4cc5c(cc4c21)OCO5)OCO3.O=S(=O)([O-])O [YU155443, SANGUINARINE SULFATE, reference compound]	17.36		5.51%	−11.85%			62.80	
Cc1ccccc1C(=O)NCc1nnc(S)n1C [YU147024]	35.27	31.6	29.44%	−5.84%				
CN(C)CCCn1cc(C2=C(c3c[nH]c4ccccc34)C(=O)NC2=O)c2ccccc21 [YU154851, GF 109203X, reference compound]		40.7			5.76	5.46		
